From patent US10526385B2, “YAP protein inhibiting polypeptide and application thereof” (BAO KANG BIOMEDICAL HEALTHCARE INC, priority 2013, dated 2020)
Like-named read-outs stand apart in the source and are kept apart here. Where a SMILES comes first, the peptide text is derived from it. Bridges are numbered along the chain shown (N, C = ends). [ ]: non-standard residue; d: D form. Phe(3-Cl) = N[C@@H](Cc1cccc(Cl)c1)C(=O)O; hCys = N[C@@H](CCS)C(=O)O; Nle = CCCC[C@H](N)C(=O)O

Experiments:
[1] = tested on: hepatoma cell line BEL7404; format: cell-based; details: for YAP inhibitory activity: summary of Table 8 in words
Description: (§1) The hepatoma cell line BEL7404 (purchased from The Chinese Academy of Sciences cell bank) was a cell line with high expression of YAP protein; HCCLM3 (purchased from The Chinese Academy of Sciences cell bank) was a cell line with low expression of YAP protein. The hepatoma cell lines (BEL7404 or HCCLM3) were inoculated into a 96-well plate at the concentration of 2000 cells/well, and incubated overnight in RPMI1640 containing 1% bovine serum at 37° C. The hepatoma cell lines were treated with polypeptides having different concentrations at 37° C. for 72 h.
(§2) Moreover, IC50 values of the cells in 1.1 were determined using CCK-8 kit.
(§3) The polypeptide represented by SEQ ID NO.:1 was further modified. The IC50 values of the polypeptides at a concentration of 1% in cell cultivating for 72 h were measured.

[2] = tested on: hepatoma cell line HCCLM3; format: cell-based
Description: as §1, §2, §3

[3] = Table 8, at a concentration of 1% in cell cultivating for 72 h, unit inferred, read-out: IC50 BEL7404
[4] = Table 8, at a concentration of 1% in cell cultivating for 72 h, unit inferred, read-out: IC50 HCCLM3

IC50 ([1]; 72 h) [µM] | IC50 ([2]; 72 h) [µM] | IC50 [1, 3] [µM] | IC50 [2, 4] [µM] | Molecule | further results
211 ± 44.2 | > 1000 |  |  | CC[C@H](C)[C@H](NC(=O)[C@H](CCCCN)NC(=O)[C@H](CCCCN)NC(=O)[C@H](Cc1c[nH]c2ccccc12)NC(=O)[C@H](CCCCN)NC(=O)[C@H](CCSC)NC(=O)[C@H](CCCNC(=N)N)NC(=O)[C@@H](N)CCCNC(=N)N)C(=O)N[C@H](C(=O)N[C@@H](Cc1c[nH]cn1)C(=O)N[C@H](C(=O)N[C@@H](CCCNC(=N)N)C(=O)NCC(=O)N[C@@H](CC(=O)O)C(=O)N[C@@H](CO)C(=O)N[C@@H](CCC(=O)O)C(=O)N[C@H](C(=O)N[C@@H](CC(=O)O)C(=O)N[C@@H](CC(C)C)C(=O)N[C@@H](CCC(=O)O)C(=O)N[C@@H](C)C(=O)N[C@@H](CC(C)C)C(=O)N[C@@H](Cc1ccccc1)C(=O)O)[C@@H](C)O)C(C)C)C(C)C [SEQ ID NO.: 17] | 
816 ± 14.4 | > 1000 |  |  | CSCC[C@H](NC(=O)[C@H](CCCNC(=N)N)NC(=O)[C@@H](N)CCCNC(=N)N)C(=O)N[C@@H](CCCCN)C(=O)N[C@@H](Cc1c[nH]c2ccccc12)C(=O)N[C@@H](CCCCN)C(=O)N[C@@H](CCCCN)C(=O)N[C@H](C(=O)N[C@@H](C)C(=O)NCC(=O)N[C@@H](C)C(=O)N[C@@H](CC(C)C)C(=O)N[C@H](C(=O)N1CCC[C@H]1C(=O)N[C@@H](CCC(N)=O)C(=O)N[C@@H](Cc1c[nH]cn1)C(=O)N[C@H](C(=O)N[C@@H](CCCNC(=N)N)C(=O)N[C@@H](C)C(=O)N[C@@H](Cc1c[nH]cn1)C(=O)N[C@@H](CO)C(=O)N[C@@H](CO)C(=O)N1CCC[C@H]1C(=O)O)C(C)C)[C@@H](C)O)[C@@H](C)O [SEQ ID NO.: 18] | 
763 ± 31.5 | > 1000 |  |  | CSCC[C@H](NC(=O)[C@H](CCCNC(=N)N)NC(=O)[C@@H](N)CCCNC(=N)N)C(=O)N[C@@H](CCCCN)C(=O)N[C@@H](Cc1c[nH]c2ccccc12)C(=O)N[C@@H](CCCCN)C(=O)N[C@@H](CCCCN)C(=O)N1CCC[C@H]1C(=O)N[C@H](C(=O)NCC(=O)N[C@H](C(=O)N[C@H](C(=O)N[C@@H](CO)C(=O)NCC(=O)N1CCC[C@H]1C(=O)N[C@@H](C)C(=O)N[C@@H](C)C(=O)N[C@H](C(=O)N1CCC[C@H]1C(=O)N[C@H](C(=O)N[C@@H](C)C(=O)N[C@@H](CCC(N)=O)C(=O)N[C@@H](Cc1c[nH]cn1)C(=O)O)[C@@H](C)O)[C@@H](C)O)C(C)C)C(C)C)[C@@H](C)O [SEQ ID NO.: 19] | 
444 ± 46.5 | > 1000 |  |  | CSCC[C@H](NC(=O)[C@H](CCC(=O)O)NC(=O)[C@H](Cc1c[nH]c2ccccc12)NC(=O)CNC(=O)[C@H](C)NC(=O)[C@@H]1CCCN1C(=O)[C@H](CCCCN)NC(=O)[C@H](CCCCN)NC(=O)[C@H](Cc1c[nH]c2ccccc12)NC(=O)[C@H](CCCCN)NC(=O)[C@H](CCSC)NC(=O)[C@H](CCCNC(=N)N)NC(=O)[C@@H](N)CCCNC(=N)N)C(=O)N[C@@H](C)C(=O)N[C@@H](CCCCN)C(=O)N[C@H](C(=O)N[C@@H](CO)C(=O)N[C@@H](CO)C(=O)NCC(=O)N[C@@H](CCC(N)=O)C(=O)N[C@@H](CCCNC(=N)N)C(=O)N[C@@H](Cc1ccc(O)cc1)C(=O)N[C@@H](Cc1ccccc1)C(=O)O)[C@@H](C)O [SEQ ID NO.: 20] | 
 |  | 28.6 ± 2.9 | 196 ± 16.3 | CCCC[C@@H]1NC(=O)[C@H](CCCCN)NC(=O)[C@H](CCCNC(=N)N)NC(=O)[C@H](CC(C)C)NC(=O)[C@@H](NC(=O)[C@H](Cc2cccc(Cl)c2)NC(=O)[C@@H]2CCCN2C(=O)[C@@H](N)C(C)C)CCSSC[C@@H](C(=O)N[C@@H](CCCCN)C(=O)N2CCC[C@H]2C(=O)N2CCC[C@H]2C(=O)N[C@@H](CCCNC(=N)N)C(=O)N[C@@H](CCCNC(=N)N)C(=O)N[C@@H](CCSC)C(=O)N[C@@H](CCCCN)C(=O)N[C@@H](Cc2c[nH]c3ccccc23)C(=O)N[C@@H](CCCCN)C(=O)N[C@@H](CCCCN)C(=O)O)NC(=O)[C@H](Cc2ccccc2)NC(=O)[C@H](CO)NC(=O)[C@H](C)NC(=O)[C@@H]2CCCN2C1=O [compound 21] (H-VP[Phe(3-Cl)][hCys]LRK[Nle]PASFCKPPRRMKWKK-OH; disulfide 4-13) | 
 |  | 67.9 ± 6.4 | 181 ± 21.7 | CCCC[C@@H]1NC(=O)[C@H](CCCCN)NC(=O)[C@H](CCCNC(=N)N)NC(=O)[C@H](CC(C)C)NC(=O)[C@@H](NC(=O)[C@H](Cc2cccc(Cl)c2)NC(=O)[C@@H]2CCCN2C(=O)[C@@H](N)C(C)C)CCSSC[C@@H](C(=O)N[C@@H](CCCCN)C(=O)N2CCC[C@H]2C(=O)N2CCC[C@H]2C(=O)N[C@@H](CCCNC(=N)N)C(=O)N[C@@H](CCCNC(=N)N)C(=O)N[C@@H](CCSC)C(=O)N[C@@H](CCCCN)C(=O)N[C@@H](Cc2c[nH]c3ccccc23)C(=O)N[C@@H](CCCCN)C(=O)N[C@@H](CCCCN)C(=O)O)NC(=O)[C@H](Cc2ccccc2)NC(=O)[C@H](CO)NC(=O)[C@H](CCC(=O)O)NC(=O)[C@@H]2CCCN2C1=O [compound 22] (H-VP[Phe(3-Cl)][hCys]LRK[Nle]PESFCKPPRRMKWKK-OH; disulfide 4-13) | 
 |  | 37.2 ± 1 | 129 ± 26.4 | CCCC[C@@H]1NC(=O)[C@H](CCCCN)NC(=O)[C@H](CCCCN)NC(=O)[C@H](CC(C)C)NC(=O)[C@@H](NC(=O)[C@H](Cc2cccc(Cl)c2)NC(=O)[C@@H]2CCCN2C(=O)[C@@H](N)C(C)C)CCSSC[C@@H](C(=O)N[C@@H](CCCCN)C(=O)N2CCC[C@H]2C(=O)N2CCC[C@H]2C(=O)N[C@@H](CCCNC(=N)N)C(=O)N[C@@H](CCCNC(=N)N)C(=O)N[C@@H](CCSC)C(=O)N[C@@H](CCCCN)C(=O)N[C@@H](Cc2c[nH]c3ccccc23)C(=O)N[C@@H](CCCCN)C(=O)N[C@@H](CCCCN)C(=O)O)NC(=O)[C@H](Cc2ccccc2)NC(=O)[C@H](CO)NC(=O)[C@H](C)NC(=O)[C@@H]2CCCN2C1=O [compound 23] (H-VP[Phe(3-Cl)][hCys]LKK[Nle]PASFCKPPRRMKWKK-OH; disulfide 4-13) | 
 |  | 119 ± 7.1 | > 1000 | CCCC[C@@H]1NC(=O)[C@H](CCCCN)NC(=O)[C@H](CCCCN)NC(=O)[C@H](CC(C)C)NC(=O)[C@@H](NC(=O)[C@H](Cc2cccc(Cl)c2)NC(=O)[C@@H]2CCCN2C(=O)[C@H](C)N)CCSSC[C@@H](C(=O)N[C@@H](CCCCN)C(=O)N2CCC[C@H]2C(=O)N2CCC[C@H]2C(=O)N[C@@H](CCCNC(=N)N)C(=O)N[C@@H](CCCNC(=N)N)C(=O)N[C@@H](CCSC)C(=O)N[C@@H](CCCCN)C(=O)N[C@@H](Cc2c[nH]c3ccccc23)C(=O)N[C@@H](CCCCN)C(=O)N[C@@H](CCCCN)C(=O)O)NC(=O)[C@H](Cc2ccccc2)NC(=O)[C@H](CO)NC(=O)[C@H](CC(=O)O)NC(=O)[C@@H]2CCCN2C1=O [compound 25] (H-AP[Phe(3-Cl)][hCys]LKK[Nle]PDSFCKPPRRMKWKK-OH; disulfide 4-13) | 
 |  | 62.7 ± 5.9 | > 1000 | CCCC[C@@H]1NC(=O)[C@@H](NC(=O)[C@H](Cc2cccc(Cl)c2)NC(=O)[C@@H]2CCCN2C(=O)[C@H](C)N)CCSSC[C@@H](C(=O)N[C@@H](CCCCN)C(=O)N2CCC[C@H]2C(=O)N2CCC[C@H]2C(=O)N[C@@H](CCCNC(=N)N)C(=O)N[C@@H](CCCNC(=N)N)C(=O)N[C@@H](CCSC)C(=O)N[C@@H](CCCCN)C(=O)N[C@@H](Cc2c[nH]c3ccccc23)C(=O)N[C@@H](CCCCN)C(=O)N[C@@H](CCCCN)C(=O)O)NC(=O)[C@H](Cc2ccccc2)NC(=O)[C@H](CO)NC(=O)[C@H](CC(=O)O)NC(=O)[C@@H]2CCCN2C(=O)[C@H](CCCC)NC(=O)[C@H](CCCCN)NC(=O)[C@H](CCCCN)NC1=O [compound 26] (H-AP[Phe(3-Cl)][hCys][Nle]KK[Nle]PDSFCKPPRRMKWKK-OH; disulfide 4-13) | 

The remaining lines, values behind:

Molecule | IC50 ([1]; 72 h) [µM] | IC50 ([2]; 72 h) [µM] | IC50 [1, 3] [µM] | IC50 [2, 4] [µM] | further results
CSCC[C@H](NC(=O)[C@H](CCCNC(=N)N)NC(=O)[C@@H](N)CCCNC(=N)N)C(=O)N[C@@H](CCCCN)C(=O)N[C@@H](Cc1c[nH]c2ccccc12)C(=O)N[C@@H](CCCCN)C(=O)N[C@@H](CCCCN)C(=O)N1CCC[C@H]1C(=O)N[C@@H](CCC(N)=O)C(=O)NCC(=O)N[C@@H](CCC(N)=O)C(=O)NCC(=O)N1CCC[C@H]1C(=O)N1CCC[C@H]1C(=O)N[C@@H](CO)C(=O)NCC(=O)N1CCC[C@H]1C(=O)NCC(=O)N[C@@H](CCC(N)=O)C(=O)N1CCC[C@H]1C(=O)N[C@@H](C)C(=O)N1CCC[C@H]1C(=O)N[C@@H](C)C(=O)O [SEQ ID NO.: 16] | 242 ± 27.2 | > 1000 |  |  | 
CCCC[C@@H]1NC(=O)[C@H](CCCNC(=N)N)NC(=O)[C@H](CCCCN)NC(=O)[C@H](CC(C)C)NC(=O)[C@@H](NC(=O)[C@H](Cc2cccc(Cl)c2)NC(=O)[C@@H]2CCCN2C(=O)[C@@H](N)C(C)C)CCSSC[C@@H](C(=O)N[C@@H](CCCCN)C(=O)N2CCC[C@H]2C(=O)N2CCC[C@H]2C(=O)N[C@@H](CCCNC(=N)N)C(=O)N[C@@H](CCCNC(=N)N)C(=O)N[C@@H](CCSC)C(=O)N[C@@H](CCCCN)C(=O)N[C@@H](Cc2c[nH]c3ccccc23)C(=O)N[C@@H](CCCCN)C(=O)N[C@@H](CCCCN)C(=O)O)NC(=O)[C@H](Cc2ccccc2)NC(=O)[C@H](CO)NC(=O)[C@H](C)NC(=O)[C@@H]2CCCN2C1=O [compound 24] (H-VP[Phe(3-Cl)][hCys]LKR[Nle]PASFCKPPRRMKWKK-OH; disulfide 4-13) |  |  | 25.7 ± 3 | 67.3 ± 38.5 | 
VP(3-Cl)F-Hcy-LKK-Nle-PASFCKPP RRMKWKK [SEQ ID NO.: 23] |  |  |  |  | YAP inhibitory activity [1]: best inhibitory activity
VP(3-Cl)F-Hcy-LRK-Nle-PASFCKPP RRMKWKK [SEQ ID NO.: 21] |  |  |  |  | YAP inhibitory activity [1]: best inhibitory activity
VP(3-Cl)F-LKK-Hcy-Nle-PASFKPPC RRMKWKK [SEQ ID NO.: 33] |  |  |  |  | YAP inhibitory activity [1]: best inhibitory activity
VP-Hcy-(3-Cl)F-LKK-Nle-PASCFKPP RRMKWKK [SEQ ID NO.: 31] |  |  |  |  | YAP inhibitory activity [1]: best inhibitory activity
